Source: patent US10414728B2 (priority 2014, dated 2019)
Where a name gives a salt, the structure may show the parent alone. Read-outs that look alike come from different tables or passages of the source.

Key:
human NaV 1.5 = human NaV 1.5 (Homo sapiens, UniProt Q14524); experiment: Electrophysiology, IonWorks Barracuda, NaV channel block in CHO cells; settings: Nav1.5, CHO cells, 5 min exposure, ambient temperature
Procedure: (§1) Effects on Human NaV 1.1, NaV 1.2, NaV1.3, NaV 1.4, NaV 1.5, NaV 1.6, NaV 1.7 and NaV 1.8/β3 Sodium Channels Expressed in Mammalian Cells
(§2) CHO cells were stably transfected with human ion channel cDNAs. Stable transfectants were selected by expression with the antibiotic-resistance gene(s) incorporated into the expression plasmid(s). Selection pressure was maintained by including selection antibiotics in the culture medium. CHO cells were cultured in Ham's F-12 supplemented with 10% fetal bovine serum, 100 U/mL penicillin G sodium, 100 μg/mL streptomycin sulfate and appropriate selection antibiotics. Before testing, cells in culture dishes were washed twice with Hank's Balanced Salt Solution (HB-PS) and treated with Accutase for approximately 20 minutes. Immediately before use in IonWorks Barracuda™, the cells were washed in HB-PS to remove the Accutase and re-suspended in HB-PS. All experiments were performed at ambient temperature. […] Duration of exposure to each test article concentration was five (5) minutes. Inhibition of NaV channels was measured using a stimulus voltage pattern. The pulse pattern was repeated before (baseline) and for five (5) minutes after compound addition. […]
(§3) where [C] was the concentration of test article, IC50 was the concentration of the test article producing half-maximal inhibition, N was the Hill coefficient, % VC was the percentage of the current run-down (the mean current inhibition at the vehicle control) and % Block was the percentage of ion channel current inhibited at each concentration of a test article. Nonlinear least squares fits were solved with the XLfit add-in for Excel (Microsoft, Redmond, Wash.).

human NaV 1.1 = target: T1, human NaV 1.1 (Homo sapiens, UniProt P35498); experiment: as above; type: cell-based; settings: Nav1.1, CHO cells, 5 min exposure, ambient temperature
T1 construct: expressed in transfected cells; host or cells: CHO
Procedure: as §1, §2, §3

human NaV 1.2 = target: T2, human NaV 1.2 (Homo sapiens, UniProt Q99250); experiment: as above; type: cell-based; settings: Nav1.2, CHO cells, 5 min exposure, ambient temperature
T2 construct: expressed in transfected cells; host or cells: CHO
Procedure: as §1, §2, §3

human NaV 1.4 = target: T3, human NaV 1.4 (Homo sapiens, UniProt P35499); experiment: as above; type: cell-based; settings: Nav1.4, CHO cells, 5 min exposure, ambient temperature
T3 construct: expressed in transfected cells; host or cells: CHO
Procedure: as §1, §2, §3

human NaV 1.6 = target: T4, human NaV 1.6 (Homo sapiens, UniProt Q9UQD0); experiment: as above; type: cell-based; settings: Nav1.6, CHO cells, 5 min exposure, ambient temperature
T4 construct: expressed in transfected cells; host or cells: CHO
Procedure: as §1, §2, §3

human NaV 1.7 = target: T5, human NaV 1.7 (Homo sapiens, UniProt Q15858); experiment: as above; type: cell-based; settings: Nav1.7, CHO cells, 5 min exposure, ambient temperature
T5 construct: expressed in transfected cells; host or cells: CHO
Procedure: as §1, §2, §3

human NaV 1.8/β3 = target: T6, human NaV 1.8/β3 (Homo sapiens, UniProt Q9Y5Y9); experiment: as above; type: cell-based; settings: Nav1.8, CHO cells, 5 min exposure, ambient temperature
T6 construct: expressed in transfected cells; host or cells: CHO
Procedure: as §1, §2, §3

human NaV1.3 = target: T7, human NaV1.3 (Homo sapiens, UniProt Q9NY46); experiment: as above; type: cell-based; settings: Nav1.3, CHO cells, 5 min exposure, ambient temperature
T7 construct: expressed in transfected cells; host or cells: CHO
Procedure: as §1, §2, §3

NaV 1.1 to NaV 1.8 = experiment: Electrophysiology, summary over the NaV panel; type: cell-based, human
Procedure: as §1
CHO cells were stably transfected with human ion channel cDNAs. Stable transfectants were selected by expression with the antibiotic-resistance gene(s) incorporated into the expression plasmid(s). Selection pressure was maintained by including selection antibiotics in the culture medium. CHO cells were cultured in Ham's F-12 supplemented with 10% fetal bovine serum, 100 U/mL penicillin G sodium, 100 μg/mL streptomycin sulfate and appropriate selection antibiotics. Before testing, cells in culture dishes were washed twice with Hank's Balanced Salt Solution (HB-PS) and treated with Accutase for approximately 20 minutes. Immediately before use in IonWorks Barracuda™, the cells were washed in HB-PS to remove the Accutase and re-suspended in HB-PS. All experiments were performed at ambient temperature. […] Duration of exposure to each test article concentration was five (5) minutes. Inhibition of NaV channels was measured using a stimulus voltage pattern. The pulse pattern was repeated before (baseline) and for five (5) minutes after compound addition. Peak current amplitudes were measured for test pulses TP1 (inactivated state inhibition), TP2, TP3 (tonic inhibition) and TP22 (use-dependent inhibition).
as §3

Solubility observation = type: physicochemical; settings: DMSO and acetonitrile/water
Procedure: A solution of methyl biphenyl-4-yl(1,2,5,6-tetrahydropyridin-2-yl)acetate hydrochloride salt (10.0 g, crude) in acetonitrile (40 mL) was charged with Methyl tert.-butyl ether (80 mL) and water (7.0 mL) at room temperature. The reaction mixture was stirred for 10 min at room temperature. The resulted solids were filtered, washed with Methyl tert.-butyl ether (25 mL) and was dried to afford EXAMPLE 1E (Enantiomeric pair consisting of Methyl (2R)-biphenyl-4-yl[(2S)-1,2,5,6-tetrahydropyridin-2-yl]acetate hydrochloride, EXAMPLE 1C, & Methyl (2S)-biphenyl-4-yl[(2R)-1,2,5,6-tetrahydropyridin-2-yl]acetate hydrochloride, EXAMPLE 1D, 3.75 g) as a light brown solid (96.8% HPLC purity, m/z 308 [M+H]+).

[1] = target: T8, Human recombinant serotonin 5-HT2A receptor (Homo sapiens, UniProt P28223); experiment: Serotonin-mediated inositol phosphate (IP1) response in CHO-K1 cells; type: cell-based; settings: screened at 1 μM, 30 minutes at 37° C.; for inhibition at 1 µM: CHO-K1, read-out: antagonism: inhibition of 0.3 μM serotonin-induced fluorescence response
T8 construct: expressed in transfected cells; host or cells: CHO-K1
Procedure: The 5-HT2 receptor class couples preferentially to Gq/G11 to increase hydrolysis of inositol phosphates and elevate cytosolic [Ca^2+]. Human recombinant serotonin 5-HT2A receptor stably expressed in CHO-K1 cells are used. Test compound and/or vehicle is incubated with the cells (5×10^5/ml) in stimulation buffer of IP1 Tb kit (Cisbio Bioassays) for 30 minutes at 37° C. Test compound-induced increase of fluorescence relative to the 10 μM serotonin response indicate possible serotonin 5-HT2A receptor agonist activity.

sodium channel site 2 = experiment: Sodium channel site 2 radioligand binding ([3H]Batrachotoxinin); settings: rat brain membranes, determined in previous studies
[2] = read-out: IC50 TP2 (inactivated state)

T5 sequence (Q15858 whole entry): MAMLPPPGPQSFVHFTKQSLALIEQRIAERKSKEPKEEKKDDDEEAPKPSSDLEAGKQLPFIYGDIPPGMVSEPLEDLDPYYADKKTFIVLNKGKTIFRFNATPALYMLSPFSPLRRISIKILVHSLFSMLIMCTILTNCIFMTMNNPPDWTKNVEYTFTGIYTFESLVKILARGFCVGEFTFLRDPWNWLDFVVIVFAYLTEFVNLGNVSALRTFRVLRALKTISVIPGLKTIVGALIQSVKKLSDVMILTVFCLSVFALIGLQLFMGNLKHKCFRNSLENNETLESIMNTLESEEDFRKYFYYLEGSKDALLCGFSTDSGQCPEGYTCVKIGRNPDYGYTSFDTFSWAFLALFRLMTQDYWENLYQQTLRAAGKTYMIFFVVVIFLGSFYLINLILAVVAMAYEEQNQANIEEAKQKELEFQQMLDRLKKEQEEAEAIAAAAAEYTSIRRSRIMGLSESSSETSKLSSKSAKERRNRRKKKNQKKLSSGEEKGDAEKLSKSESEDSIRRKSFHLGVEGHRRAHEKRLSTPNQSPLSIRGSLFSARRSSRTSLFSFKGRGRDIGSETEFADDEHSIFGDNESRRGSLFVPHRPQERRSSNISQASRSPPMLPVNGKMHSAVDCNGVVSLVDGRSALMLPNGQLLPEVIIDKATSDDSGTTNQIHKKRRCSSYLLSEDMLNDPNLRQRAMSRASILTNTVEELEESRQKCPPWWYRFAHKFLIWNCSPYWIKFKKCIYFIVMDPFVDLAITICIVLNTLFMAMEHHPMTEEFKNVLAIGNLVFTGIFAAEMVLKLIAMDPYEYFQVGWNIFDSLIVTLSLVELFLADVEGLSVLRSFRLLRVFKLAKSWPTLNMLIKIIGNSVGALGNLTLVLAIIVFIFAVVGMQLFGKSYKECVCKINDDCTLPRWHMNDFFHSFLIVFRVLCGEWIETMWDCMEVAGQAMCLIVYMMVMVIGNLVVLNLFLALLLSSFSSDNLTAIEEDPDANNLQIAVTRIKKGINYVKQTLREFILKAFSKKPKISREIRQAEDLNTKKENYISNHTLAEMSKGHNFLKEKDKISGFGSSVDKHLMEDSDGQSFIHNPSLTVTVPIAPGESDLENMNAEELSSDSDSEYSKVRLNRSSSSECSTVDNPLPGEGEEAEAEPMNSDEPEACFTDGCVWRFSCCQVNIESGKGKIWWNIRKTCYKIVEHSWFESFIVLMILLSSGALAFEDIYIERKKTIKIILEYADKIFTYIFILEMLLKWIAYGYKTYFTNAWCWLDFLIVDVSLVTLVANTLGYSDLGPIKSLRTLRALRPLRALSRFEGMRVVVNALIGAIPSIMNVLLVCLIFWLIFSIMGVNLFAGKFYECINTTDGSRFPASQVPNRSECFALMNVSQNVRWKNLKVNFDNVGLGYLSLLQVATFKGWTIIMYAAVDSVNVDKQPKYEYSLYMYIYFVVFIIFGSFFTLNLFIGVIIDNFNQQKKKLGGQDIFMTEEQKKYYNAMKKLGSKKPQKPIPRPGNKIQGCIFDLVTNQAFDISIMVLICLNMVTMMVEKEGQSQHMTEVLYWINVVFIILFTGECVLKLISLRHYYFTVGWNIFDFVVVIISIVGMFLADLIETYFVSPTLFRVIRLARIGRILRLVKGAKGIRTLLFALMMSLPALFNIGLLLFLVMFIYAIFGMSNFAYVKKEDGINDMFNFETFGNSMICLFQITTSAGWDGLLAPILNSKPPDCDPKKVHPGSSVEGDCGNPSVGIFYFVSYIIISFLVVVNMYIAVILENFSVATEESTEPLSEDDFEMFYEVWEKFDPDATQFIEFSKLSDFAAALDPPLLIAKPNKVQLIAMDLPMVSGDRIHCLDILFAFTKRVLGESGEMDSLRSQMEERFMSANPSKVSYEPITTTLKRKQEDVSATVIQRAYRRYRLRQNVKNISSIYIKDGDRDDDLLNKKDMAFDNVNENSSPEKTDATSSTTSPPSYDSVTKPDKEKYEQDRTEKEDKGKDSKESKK
T2 sequence (Q99250 whole entry): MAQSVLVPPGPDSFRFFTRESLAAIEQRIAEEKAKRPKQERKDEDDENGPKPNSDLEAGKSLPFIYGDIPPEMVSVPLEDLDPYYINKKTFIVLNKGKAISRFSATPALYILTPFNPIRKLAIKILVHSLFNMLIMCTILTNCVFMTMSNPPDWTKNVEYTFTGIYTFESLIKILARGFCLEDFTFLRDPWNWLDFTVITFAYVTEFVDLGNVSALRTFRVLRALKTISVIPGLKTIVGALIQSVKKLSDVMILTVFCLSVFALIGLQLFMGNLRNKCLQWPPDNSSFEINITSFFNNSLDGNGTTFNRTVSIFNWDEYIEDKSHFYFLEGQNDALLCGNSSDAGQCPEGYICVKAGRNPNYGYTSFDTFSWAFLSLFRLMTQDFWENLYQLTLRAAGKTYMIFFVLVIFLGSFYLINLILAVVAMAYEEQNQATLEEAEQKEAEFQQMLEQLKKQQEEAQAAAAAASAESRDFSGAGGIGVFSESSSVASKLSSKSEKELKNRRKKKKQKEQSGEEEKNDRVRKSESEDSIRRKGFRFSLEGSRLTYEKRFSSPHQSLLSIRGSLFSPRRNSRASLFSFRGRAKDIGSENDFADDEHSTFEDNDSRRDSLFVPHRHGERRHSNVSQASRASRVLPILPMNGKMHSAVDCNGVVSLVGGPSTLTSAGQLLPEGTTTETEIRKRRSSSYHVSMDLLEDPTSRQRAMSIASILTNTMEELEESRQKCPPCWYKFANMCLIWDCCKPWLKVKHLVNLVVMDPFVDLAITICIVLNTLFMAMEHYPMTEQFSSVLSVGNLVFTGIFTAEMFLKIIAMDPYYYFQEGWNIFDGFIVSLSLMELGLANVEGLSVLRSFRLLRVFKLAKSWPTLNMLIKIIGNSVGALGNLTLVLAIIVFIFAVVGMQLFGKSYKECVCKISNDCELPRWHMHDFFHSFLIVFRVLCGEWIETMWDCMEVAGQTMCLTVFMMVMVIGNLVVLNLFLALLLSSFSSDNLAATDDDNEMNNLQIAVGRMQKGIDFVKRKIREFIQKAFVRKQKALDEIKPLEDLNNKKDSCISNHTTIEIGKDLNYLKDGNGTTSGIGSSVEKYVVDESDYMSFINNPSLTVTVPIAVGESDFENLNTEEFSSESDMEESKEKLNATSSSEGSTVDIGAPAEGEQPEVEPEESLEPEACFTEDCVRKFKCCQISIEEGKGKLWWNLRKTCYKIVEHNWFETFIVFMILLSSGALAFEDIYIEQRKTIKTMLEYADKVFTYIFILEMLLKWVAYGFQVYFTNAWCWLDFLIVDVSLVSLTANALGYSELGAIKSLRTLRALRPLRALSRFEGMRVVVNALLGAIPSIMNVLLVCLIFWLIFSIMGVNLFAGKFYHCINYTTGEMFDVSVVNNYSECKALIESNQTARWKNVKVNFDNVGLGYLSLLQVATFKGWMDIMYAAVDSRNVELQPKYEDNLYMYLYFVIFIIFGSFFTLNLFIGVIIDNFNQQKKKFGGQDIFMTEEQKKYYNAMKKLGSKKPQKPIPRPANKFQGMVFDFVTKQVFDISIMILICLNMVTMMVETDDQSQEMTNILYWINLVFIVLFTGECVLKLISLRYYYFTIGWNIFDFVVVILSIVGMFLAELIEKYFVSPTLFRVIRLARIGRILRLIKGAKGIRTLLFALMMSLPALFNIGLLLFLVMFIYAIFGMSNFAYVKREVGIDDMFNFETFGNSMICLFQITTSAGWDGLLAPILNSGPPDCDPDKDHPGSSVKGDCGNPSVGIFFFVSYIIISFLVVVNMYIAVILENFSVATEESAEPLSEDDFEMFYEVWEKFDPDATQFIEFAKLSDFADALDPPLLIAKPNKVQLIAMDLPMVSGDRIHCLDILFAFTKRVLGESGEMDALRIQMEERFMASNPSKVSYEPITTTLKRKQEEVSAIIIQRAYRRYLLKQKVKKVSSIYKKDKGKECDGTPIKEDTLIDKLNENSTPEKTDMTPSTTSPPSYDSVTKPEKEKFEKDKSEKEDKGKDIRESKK
T8 sequence (P28223 whole entry): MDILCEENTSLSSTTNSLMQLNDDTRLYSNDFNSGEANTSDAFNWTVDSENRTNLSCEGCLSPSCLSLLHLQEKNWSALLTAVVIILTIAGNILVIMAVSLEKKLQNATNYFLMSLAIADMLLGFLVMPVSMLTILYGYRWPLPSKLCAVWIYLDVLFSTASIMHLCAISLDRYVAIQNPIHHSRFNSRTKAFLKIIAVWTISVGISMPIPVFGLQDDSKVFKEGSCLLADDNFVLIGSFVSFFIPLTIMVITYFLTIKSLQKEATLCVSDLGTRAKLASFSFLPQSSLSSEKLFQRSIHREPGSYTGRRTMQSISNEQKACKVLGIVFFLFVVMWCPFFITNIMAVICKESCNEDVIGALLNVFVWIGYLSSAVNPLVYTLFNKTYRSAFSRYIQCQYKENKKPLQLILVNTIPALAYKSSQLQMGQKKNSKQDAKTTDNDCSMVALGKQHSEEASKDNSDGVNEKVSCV

Compound: COC(=O)[C@H](c1ccc(-c2ccccc2)cc1)[C@@H]1C=CCCN1 (racemic) [EXAMPLE 1E]
- IC50 (human NaV 1.5; IC50 TP1 (tonic)): > 30 µM
- IC50 (human NaV 1.5; IC50 TP2 (inactivated state)): 1.2 µM
- IC50 (human NaV 1.1; IC50 TP1 (tonic)): > 30 µM
- IC50 (human NaV 1.1; IC50 TP2 (inactivated state)): 1.5 µM
- IC50 (human NaV 1.2; IC50 TP1 (tonic)): > 30 µM
- IC50 (human NaV 1.2; IC50 TP2 (inactivated state)): 1.5 µM
- IC50 (human NaV 1.4; IC50 TP1 (tonic)): > 30 µM
- IC50 (human NaV 1.4; IC50 TP2 (inactivated state)): 1.2 µM
- IC50 (human NaV 1.6; IC50 TP1 (tonic)): > 30 µM
- IC50 (human NaV 1.6; IC50 TP2 (inactivated state)): 1.2 µM
- IC50 (human NaV 1.7; IC50 TP1 (tonic)): > 30 µM
- IC50 (human NaV 1.7; IC50 TP2 (inactivated state)): 1.3 µM
- IC50 (human NaV 1.8/β3; IC50 TP1 (tonic)): > 30 µM
- IC50 (human NaV 1.8/β3; IC50 TP2 (inactivated state)): 1.1 µM
- IC50 (human NaV1.3; IC50 TP1 (tonic)): > 30 µM
- IC50 (human NaV1.3; IC50 TP2 (inactivated state)): 1.3 µM
- inhibition to NaV 1.1 to NaV 1.8 (NaV 1.1 to NaV 1.8): showed inhibition
- solubility (Solubility observation): soluble in DMSO and acetonitrile/water

Compound: COC(=O)C(c1ccc(-c2ccccc2)cc1)C1C=CCCN1.Cl (stereo not shown) [EXAMPLE 1, methyl biphenyl-4-yl(1,2,5,6-tetrahydropyridin-2-yl)acetate hydrochloride salt]
- agonist activity (increase of fluorescence relative to the 10 μM serotonin response) [1]: no agonist activity

Compound: [3H]Batrachotoxinin
- Kd (sodium channel site 2): 0.052 µM

Compound: COC(=O)[C@H](c1ccc(-c2ccccc2)cc1)[C@@H]1C=CCCN1.Cl [EXAMPLE 1C, Methyl (2R)-biphenyl-4-yl[(2S)-1,2,5,6-tetrahydropyridin-2-yl]acetate hydrochloride]
- IC50 (human NaV 1.5; IC50 TP1 (tonic)): > 30 µM
- IC50 (human NaV 1.5; IC50 TP2 (inactivated state)): 1.5 µM
- IC50 (human NaV 1.1; IC50 TP1 (tonic)): > 30 µM
- IC50 (human NaV 1.1; IC50 TP2 (inactivated state)): 2.1 µM
- IC50 (human NaV 1.2; IC50 TP1 (tonic)): > 30 µM
- IC50 (human NaV 1.2; IC50 TP2 (inactivated state)): 3.1 µM
- IC50 (human NaV 1.4; IC50 TP1 (tonic)): > 30 µM
- IC50 (human NaV 1.4; IC50 TP2 (inactivated state)): 1.5 µM
- IC50 (human NaV 1.6; IC50 TP1 (tonic)): > 30 µM
- IC50 (human NaV 1.6; IC50 TP2 (inactivated state)): 2.2 µM
- IC50 (human NaV 1.7; IC50 TP1 (tonic)): > 30 µM
- IC50 (human NaV 1.7; IC50 TP2 (inactivated state)): 2.5 µM
- IC50 (human NaV 1.8/β3; IC50 TP1 (tonic)): > 30 µM
- IC50 (human NaV 1.8/β3; IC50 TP2 (inactivated state)): 1.9 µM
- IC50 (human NaV1.3; IC50 TP1 (tonic)): > 30 µM
- IC50 (human NaV1.3; IC50 TP2 (inactivated state)): 2.2 µM
- inhibition to NaV 1.1 to NaV 1.8 (NaV 1.1 to NaV 1.8): showed inhibition
- inhibition at 1 µM [1]: 30%
- agonist activity (increase of fluorescence relative to the 10 μM serotonin response) [1]: no agonist activity

Compound: COC(=O)[C@@H](c1ccc(-c2ccccc2)cc1)[C@H]1C=CCCN1 [EXAMPLE 1D, Methyl (2S)-biphenyl-4-yl[(2R)-1,2,5,6-tetrahydropyridin-2-yl]acetate hydrochloride]
- IC50 (human NaV 1.5; IC50 TP1 (tonic)): > 30 µM
- IC50 (human NaV 1.5; IC50 TP2 (inactivated state)): 2 µM
- IC50 (human NaV 1.1; IC50 TP1 (tonic)): > 30 µM
- IC50 (human NaV 1.1; IC50 TP2 (inactivated state)): 2.2 µM
- IC50 (human NaV 1.2; IC50 TP1 (tonic)): > 30 µM
- IC50 (human NaV 1.2; IC50 TP2 (inactivated state)): 2.1 µM
- IC50 (human NaV 1.4; IC50 TP1 (tonic)): > 30 µM
- IC50 (human NaV 1.4; IC50 TP2 (inactivated state)): 1.3 µM
- IC50 (human NaV 1.6; IC50 TP1 (tonic)): > 30 µM
- IC50 (human NaV 1.6; IC50 TP2 (inactivated state)): 2 µM
- IC50 (human NaV 1.7; IC50 TP1 (tonic)): > 30 µM
- IC50 (human NaV 1.7; IC50 TP2 (inactivated state)): 2 µM
- IC50 (human NaV 1.8/β3; IC50 TP1 (tonic)): > 30 µM
- IC50 (human NaV 1.8/β3; IC50 TP2 (inactivated state)): 1.8 µM
- IC50 (human NaV1.3; IC50 TP1 (tonic)): > 30 µM
- IC50 (human NaV1.3; IC50 TP2 (inactivated state)): 2 µM
- inhibition to NaV 1.1 to NaV 1.8 (NaV 1.1 to NaV 1.8): showed inhibition
- inhibition at 1 µM [1]: 37%
- agonist activity (increase of fluorescence relative to the 10 μM serotonin response) [1]: no agonist activity

Compound: CCN(CC)CC(=O)Nc1c(C)cccc1C [Lidocaine, reference compound]
- IC50 (human NaV 1.1; read-out: IC50 TP1 (tonic)): 543 µM
- IC50 (human NaV 1.1; [2]): 465 µM
- IC50 (human NaV 1.4; read-out: IC50 TP1 (tonic)): 389 µM
- IC50 (human NaV 1.4; [2]): 162 µM
- IC50 (human NaV 1.6; read-out: IC50 TP1 (tonic)): 423 µM
- IC50 (human NaV 1.6; [2]): 188 µM
- IC50 (human NaV 1.7; read-out: IC50 TP1 (tonic)): 382 µM
- IC50 (human NaV 1.7; [2]): 154 µM
- IC50 (human NaV 1.8/β3; read-out: IC50 TP1 (tonic)): 280 µM
- IC50 (human NaV 1.8/β3; [2]): 51.4 µM
- IC50 (human NaV1.3; read-out: IC50 TP1 (tonic)): 555 µM
- IC50 (human NaV1.3; [2]): 165 µM
